# Test results reported in patent publication US6313333A, “Multinuclear cationic platinum complexes with antitumor activity” (Setanta Therapeutics, Inc., priority 1997, dated 2001).
# Test system: murine leukemia L1210
# Conditions: l1210 cells
row,Compound,"IC50, ""in vitro"" cytotoxic activity against murine leukemia L1210"
1,"N.N.N.N.N.N.NCCCCCCN.NCCCCCCN.O=[N+]([O-])[O-].O=[N+]([O-])[O-].O=[N+]([O-])[O-].O=[N+]([O-])[O-].[Cl-].[Cl-].[Pt+2].[Pt+2].[Pt+2] [t,t,t-[PtCl(NH3)2 H2 N(CH2)6 NH2 Pt(NH3)2 H2 N(CH2)6 NH2 PtCl(NH3)2]^+4.4NO3^-]",0.38 µg/mL
2,"t,t,t,t,t-[PtCl(NH3)2 H2 N--(CH2)6 --NH2 Pt--(NH3)2 H2 N--(CH2)6 --NH2 Pt(NH3)2 H2 N--(CH2)6 --NH2 Pt(NH3)2 H2 N--(CH2)6 --NH2 PtCl(NH3)2 ]^+8.8Cl^-",0.3 µg/mL
3,"t,t-[PtCl(NH3)2 H2 N--(CH2)6 --NH2 PtCl(NH3)2 ]^+2.2NO3^-",2.3 µg/mL
